Data reported in the supplement of paper PMC10307832.

Legend:
Assay in all cases: relative viability (nuclei count vs DMSO), 5 days (fraction); higher = more cells survive
[1] = compound: C1CC(C2=C(C1)C3=C(N2)C=CC(=C3)Cl)C(=O)N [Selisistat] + Cc1nc(Nc2ncc(C(=O)Nc3c(C)cccc3Cl)s2)cc(N2CCN(CCO)CC2)n1 [Dasatinib] (partner 0.075 µM)
Outline: (§1)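 Lung cancer cell lines were pin-tool dosed in 1536-well plates on the day after seeding, with either a lone drug or a fixed anchor-drug dose plus five library-drug doses (not always all listed) in √10 steps. Nuclei were counted on 4× images after 5 days. Relative viability is the ratio of treated-well to vehicle-well nuclei counts, with each value a median of duplicate plates.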

[2] = compound: C1CC(C2=C(C1)C3=C(N2)C=CC(=C3)Cl)C(=O)N [Selisistat] + CS(=O)(=O)CCNCc1ccc(-c2ccc3ncnc(Nc4ccc(OCc5cccc(F)c5)c(Cl)c4)c3c2)o1 [Lapatinib] (partner 2 µM)
Outline: as §1

[3] = compound: c1ccc2c(CCNc3ccc(Nc4ccncc4)cc3)c[nH]c2c1 [Serdemetan] + O=C(c1cc(Cc2n[nH]c(=O)c3ccccc23)ccc1F)N1CCN(C(=O)C2CC2)CC1 [Olaparib] (partner 8 µM)
Outline: as §1

[4] = compound: c1ccc2c(CCNc3ccc(Nc4ccncc4)cc3)c[nH]c2c1 [Serdemetan] + C[C@@H](Oc1cc(-c2cnn(C3CCNCC3)c2)cnc1N)c1c(Cl)ccc(F)c1Cl [Crizotinib] (partner 1 µM)
Outline: as §1

Cell Line | relative viability ([1]; first compound 0.4 µM) | relative viability ([1]; first compound 1.265 µM) | relative viability ([1]; first compound 4 µM) | relative viability ([1]; first compound 12.65 µM) | relative viability ([1]; first compound 40 µM) | relative viability ([2]; first compound 0.4 µM) | relative viability ([2]; first compound 1.265 µM) | relative viability ([2]; first compound 4 µM) | relative viability ([2]; first compound 12.65 µM) | relative viability ([2]; first compound 40 µM) | relative viability ([3]; first compound 0.04 µM) | relative viability ([3]; first compound 0.1265 µM) | relative viability ([3]; first compound 4 µM) | relative viability ([4]; first compound 0.04 µM) | relative viability ([4]; first compound 0.1265 µM) | relative viability ([4]; first compound 1.265 µM) | relative viability ([4]; first compound 4 µM) | relative viability ([3]; first compound 0.4 µM) | relative viability ([3]; first compound 1.265 µM) | relative viability ([4]; first compound 0.4 µM)
LOU-NH91 | 0.611 | 0.54 | 0.515 | 0.534 | 0.598 | 0.753 | 0.741 | 0.741 | 0.762 | 0.758 | 0.897 | 0.889 | 0.877 | 0.733 | 0.738 | 0.719 | 0.699 | – | – | –
LU99A | 0.46 | 0.634 | 0.606 | 0.546 | 0.655 | 1.06 | 0.913 | 1.06 | 0.914 | 0.962 | 0.245 | 0.185 | 0.136 | 0.521 | 0.529 | 0.187 | 0.17 | 0.17 | 0.124 | 0.317
LXF-289 | 0.286 | 0.239 | 0.305 | 0.245 | 0.303 | 0.913 | 0.949 | 0.926 | 0.864 | 0.921 | 1.1 | 1.11 | 0.388 | 0.754 | 0.776 | 0.637 | 0.689 | 0.939 | 0.794 | 0.719
NCI-H23 | 0.784 | 0.95 | 0.571 | 0.8 | 0.772 | 1.16 | 1.06 | – | 1.24 | 1 | 0.314 | 0.364 | 0.231 | 0.519 | 0.421 | 0.513 | 0.321 | 0.298 | – | 0.549
NCI-H322M | 0.266 | 0.259 | 0.243 | 0.26 | 0.26 | 0.595 | 0.562 | – | 0.623 | 0.561 | 0.667 | 0.757 | 0.655 | 0.917 | 0.93 | 0.917 | 0.585 | 0.729 | 0.469 | 0.859
NCI-H358 | 0.201 | 0.158 | 0.114 | 0.235 | 0.226 | 0.492 | 0.443 | – | 0.397 | 0.373 | 0.582 | 0.507 | 0.464 | 0.599 | 0.566 | 0.593 | 0.292 | 0.626 | 0.595 | 0.618
NCI-H460 | 0.61 | 0.513 | 0.196 | 0.478 | 0.477 | 0.909 | 0.952 | – | 0.903 | 0.911 | 0.342 | 0.344 | 0.148 | 0.842 | 0.866 | 0.154 | 0.075 | 0.349 | 0.182 | 0.836
NCI-H520 | 0.185 | 0.201 | 0.327 | 0.216 | 0.195 | 0.811 | 0.898 | 0.814 | 0.751 | 0.766 | 0.335 | 0.347 | 0.26 | 0.692 | 0.778 | 0.687 | 0.641 | 0.27 | 0.199 | 0.686
NCI-H596 | 0.673 | 0.53 | 0.493 | 0.707 | 0.545 | 1.16 | 1.16 | 1.03 | 1.14 | 1.12 | 0.694 | 0.657 | 0.475 | 1 | 0.862 | 0.569 | 0.51 | 0.517 | 0.532 | 0.914
NCI-H647 | 0.229 | 0.186 | 0.176 | 0.154 | 0.218 | 1.19 | 1.07 | – | 0.993 | 1.17 | 0.51 | 0.495 | 0.165 | 0.978 | 1.16 | 0.583 | 0.637 | 0.534 | 0.27 | 0.983
NCI-H650 | 0.427 | 0.469 | 0.52 | 0.382 | 0.493 | 1.09 | – | 0.916 | 0.941 | 1.11 | 0.379 | 0.362 | 0.285 | 0.549 | 0.735 | 0.723 | 0.566 | 0.365 | 0.271 | 0.636
NCI-H661 | 0.806 | 0.94 | 0.57 | 0.726 | 0.694 | 0.515 | 0.469 | 0.502 | 0.396 | 0.535 | 0.711 | 0.648 | 0.558 | 1.01 | – | – | 0.987 | 0.634 | 0.549 | 0.977
NCI-H727 | 0.468 | 0.419 | – | 0.454 | 0.498 | 0.626 | 0.841 | – | – | 0.725 | 0.598 | 0.725 | 0.726 | 1.01 | 0.638 | 0.427 | 0.439 | 0.679 | 0.484 | 0.665
NCI-H838 | 0.273 | 0.293 | 0.263 | 0.279 | 0.285 | 1.09 | 0.965 | 0.627 | 0.966 | 0.958 | 0.739 | 0.759 | 0.874 | 0.781 | 0.886 | 0.794 | 1.01 | 0.671 | 0.669 | 0.827
NCI-H1355 | 0.684 | 0.688 | 0.519 | 0.65 | 0.789 | 0.923 | 1 | – | 1.02 | 1.04 | 0.672 | 0.709 | 0.566 | 0.97 | 1 | 1.06 | 0.781 | 0.648 | 0.471 | 1.02
NCI-H1437 | 0.399 | 0.349 | – | 0.331 | 0.514 | 0.801 | 0.758 | 0.341 | 0.71 | 0.776 | 0.661 | 0.612 | 0.537 | 0.835 | 1.03 | 0.778 | 0.8 | 0.62 | 0.677 | 0.786
NCI-H1650 | 0.298 | 0.297 | 0.295 | 0.286 | 0.313 | 0.918 | 0.74 | 0.579 | 0.685 | 0.693 | 0.692 | 0.781 | 0.419 | 0.914 | 1.09 | 0.944 | 0.879 | 0.802 | 0.671 | 0.927
